These results are taken from patent publication US12180192B2, “Modulators of THR-β and methods of use thereof” (ALIGOS THERAPEUTICS, INC., priority 2019, dated 2024).

Like-named read-outs stand apart in the source and are kept apart here.

The target in assay [1] is T1, human thyroid receptor alpha ligand-binding domain (LBD) (Homo sapiens, UniProt P10827).
T1 construct: purchased Invitrogen
Put plainly: TR-FRET thyroid receptor alpha coactivator assay (THR biochemical assay, Assay 1). The settings on record: for EC50: Table 4, THR-alpha, read-out: Activity category Assay 1 (EC50, THR-alpha agonist activity); for Emax: Table 5, THRα, read-out: Activity category Assay 1 THRα (Emax). The gist of the method: (§1)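 Agonist-driven coactivator recruitment measured by TR-FRET: terbium anti-GST antibody (2 nM) bound to GST-LBD of TRβ or TRα (1 nM final, stated for β), with fluorescein SRC2-2 peptide at 200 nM. Compounds at 1% DMSO. Read after 1 h, room temperature, protected from light.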
(Time-resolved FRET reads energy transfer from a long-lived donor to a nearby acceptor.)

Assay [2] concerns the target T2, THR alpha (Homo sapiens, UniProt P10827).
T2 construct: expressed in transfected cells; host or cells: HEK293T (ATCC CRL-3216)
T2 sequence (P10827 1-410 isoform P10827-2): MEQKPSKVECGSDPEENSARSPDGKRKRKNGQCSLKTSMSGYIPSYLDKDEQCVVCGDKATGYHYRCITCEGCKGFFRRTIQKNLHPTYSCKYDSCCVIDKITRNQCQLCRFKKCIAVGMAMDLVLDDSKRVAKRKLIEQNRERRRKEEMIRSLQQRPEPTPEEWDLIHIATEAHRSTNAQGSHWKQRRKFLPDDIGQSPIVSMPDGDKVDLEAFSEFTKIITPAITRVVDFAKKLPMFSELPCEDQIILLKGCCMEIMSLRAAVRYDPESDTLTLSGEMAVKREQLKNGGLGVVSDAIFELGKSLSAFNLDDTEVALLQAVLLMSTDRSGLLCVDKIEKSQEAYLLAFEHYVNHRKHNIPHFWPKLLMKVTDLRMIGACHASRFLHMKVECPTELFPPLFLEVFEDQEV
T2 sequence (P19793 1-462 partner): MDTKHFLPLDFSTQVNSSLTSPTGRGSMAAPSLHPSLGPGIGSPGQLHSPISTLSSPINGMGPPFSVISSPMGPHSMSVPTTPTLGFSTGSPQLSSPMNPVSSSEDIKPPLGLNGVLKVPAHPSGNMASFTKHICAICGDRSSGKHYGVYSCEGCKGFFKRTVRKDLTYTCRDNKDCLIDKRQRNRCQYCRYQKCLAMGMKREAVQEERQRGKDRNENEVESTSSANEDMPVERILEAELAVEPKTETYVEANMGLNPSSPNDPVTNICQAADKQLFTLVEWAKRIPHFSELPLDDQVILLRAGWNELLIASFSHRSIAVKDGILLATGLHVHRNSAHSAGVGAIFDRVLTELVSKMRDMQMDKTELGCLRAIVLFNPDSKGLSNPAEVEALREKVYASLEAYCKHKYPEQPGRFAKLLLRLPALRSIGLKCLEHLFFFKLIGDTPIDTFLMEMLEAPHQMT
Put plainly: HEK293T THR alpha/RXR luciferase reporter assay (Assay 2). The assay is classed as cell-based. The following applies: Assay 2; for Emax: HEK-293T, Table 5, THRα, read-out: Activity category Assay 2 THRα (Emax); for EC50: Table 4, THR-alpha, read-out: Activity category Assay 2 (EC50, THR-alpha agonist activity). Put shortly:
(§2)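 Compounds tested as ten-point five-fold dilution series for 18-24 h on transiently transfected HEK293T cells carrying TRE-driven luciferase plus RXR and either THR alpha or beta expression plasmids. Read-out by One-Glo luminescence, expressed as percent agonism relative to negative and positive controls.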

The target in assay [3] is T3, THR beta (Homo sapiens, UniProt P10828).
T3 construct: expressed in transfected cells; host or cells: HEK293T (ATCC CRL-3216)
T3 sequence (P10828 1-461): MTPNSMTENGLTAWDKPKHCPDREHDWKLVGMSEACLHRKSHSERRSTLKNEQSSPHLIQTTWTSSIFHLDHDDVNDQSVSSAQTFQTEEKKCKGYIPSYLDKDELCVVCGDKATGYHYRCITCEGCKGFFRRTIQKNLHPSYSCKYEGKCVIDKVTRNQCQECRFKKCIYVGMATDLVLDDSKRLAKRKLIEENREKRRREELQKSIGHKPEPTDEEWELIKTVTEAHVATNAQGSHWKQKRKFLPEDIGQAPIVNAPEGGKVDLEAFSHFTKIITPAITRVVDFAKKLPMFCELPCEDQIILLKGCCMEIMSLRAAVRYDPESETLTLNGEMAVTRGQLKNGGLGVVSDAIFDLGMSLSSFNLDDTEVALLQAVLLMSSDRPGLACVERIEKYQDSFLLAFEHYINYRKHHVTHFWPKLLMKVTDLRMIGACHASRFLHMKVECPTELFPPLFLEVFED
T3 sequence (P19793 1-462 partner): T2 sequence (P19793 1-462 partner)
Kind of assay: HEK293T THR beta/RXR luciferase reporter assay (Assay 2). It is filed as cell-based. The settings on record: for Emax: HEK-293T, read-out: Activity category Assay 2 THRβ (Emax); for EC50: THR-beta, HEK293T reporter assay, read-out: Activity category Assay 2 (EC50, THR-beta agonist). Put shortly:
as §2
(Reporter assays use an easily measured gene product as a stand-in for the process of interest.)

Assay [4] addresses T4, human thyroid receptor beta ligand-binding domain (LBD) (Homo sapiens, UniProt P10828).
T4 construct: purchased Invitrogen
T4 sequence (P10828 217-461 limits assumed): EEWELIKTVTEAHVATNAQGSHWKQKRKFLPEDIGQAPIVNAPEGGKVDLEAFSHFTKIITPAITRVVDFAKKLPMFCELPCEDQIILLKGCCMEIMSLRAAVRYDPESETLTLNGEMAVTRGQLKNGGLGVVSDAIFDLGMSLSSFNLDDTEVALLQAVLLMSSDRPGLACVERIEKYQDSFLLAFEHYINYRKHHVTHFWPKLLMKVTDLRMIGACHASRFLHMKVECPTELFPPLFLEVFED
Put plainly: TR-FRET thyroid receptor beta coactivator assay (THR biochemical assay, Assay 1). The settings on record: for EC50: THR-beta, TR-FRET coactivator assay, read-out: Activity category Assay 1 (EC50, THR-beta agonist); for Emax: read-out: Activity category Assay 1 THRβ (Emax). The gist of the method: as §1

In general, EC50 refers to the concentration that produces a half-maximal response. As usually defined, the Emax is the greatest response seen or fitted, relative to the assay's reference. Regarding `Cc1cccc(-c2cc(Oc3c(Cl)cc(-n4ncc(=O)[nH]c4=O)cc3Cl)n[nH]c2=O)c1` [Compound 139], the EC50 in assay [1] was 50 to 250 nM; in assay [2] it was 50 to 250 nM; in assay [3], below 50 nM; in assay [4], 50 to 250 nM. The Emax in assay [1] was below 50%; in assay [2], below 50%; in assay [3] (Table 5, Assay 2, THRβ) it was 50 to 75%; in assay [4] (Table 5, Assay 1, THRβ), below 50%.

As for `Nc1nn(-c2cc(Cl)c(Oc3cc(-c4cccc(Cl)c4)c(=O)[nH]n3)c(Cl)c2)c(=O)[nH]c1=O` [Compound 68, 6-Amino-2-(3,5-dichloro-4-((5-(3-chlorophenyl)-6-oxo-1,6-dihydropyridazin-3-yl)oxy)phenyl)-1,2,4-triazine-3,5(2H,4H)-dione], the EC50 in assay [1] is 50 to 250 nM; in assay [2] it was 50 to 250 nM; in assay [3], below 50 nM; in assay [4], below 50 nM. Also, the Emax in assay [1] was below 50%; in assay [2] it was 50 to 75%; in assay [3] (Table 5, Assay 2, THRβ) it was above 75%; in assay [4] (Table 5, Assay 1, THRβ), 50 to 75%.

Turning to `N#Cc1nn(-c2cc(Cl)c(Oc3ccc4[nH]cc(CC5CC5)c4c3)c(Cl)c2)c(=O)[nH]c1=O` [Compound 50, 2-(3,5-dichloro-4-[[3-(cyclopropylmethyl)-1H-indol-5-yl]oxy]phenyl)-3,5-dioxo-4H-1,2,4-triazine-6-carbonitrile], the EC50 in assay [1] was below 50 nM; in assay [2], 250 to 1000 nM; in assay [3] it was 50 to 250 nM; in assay [4], below 50 nM. The Emax in assay [1] was 50 to 75%; in assay [2], above 75%; in assay [3] (Table 5, Assay 2, THRβ) it was above 75%; in assay [4] (Table 5, Assay 1, THRβ), 50 to 75%.

With `CC(C)C1(C)C(=O)Nc2ccc(Oc3c(Cl)cc(-n4nc(N)c(=O)[nH]c4=O)cc3Cl)cc21` (stereo not shown) [Compound 84, 6-amino-2-[3,5-dichloro-4-[(3-isopropyl-3-methyl-2-oxo-1H-indol-5-yl)oxy]phenyl]-4H-1,2,4-triazine-3,5-dione], the EC50 in assay [1] was below 50 nM; in assay [2], 50 to 250 nM; in assay [3], 50 to 250 nM; in assay [4], below 50 nM. For the same molecule, the Emax in assay [1] is 50 to 75%; in assay [2], above 75%; in assay [3] (Table 5, Assay 2, THRβ) it was above 75%; in assay [4] (Table 5, Assay 1, THRβ), below 50%.

For the molecule `Cc1cc(-n2nc(N)c(=O)[nH]c2=O)cc(C)c1Oc1cc(C(C)C)c(=O)[nH]n1` [Compound 38, 6-Amino-2-[4-[(5-isopropyl-6-oxo-1H-pyridazin-3-yl)oxy]-3,5-dimethylphenyl]-4H-1,2,4-triazine-3,5-dione], the EC50 was 1000 to 25000 nM in assay [1], above 10000 nM in assay [2], 250 to 1000 nM in assay [3] and 250 to 1000 nM in assay [4]. Further, the maximal effect (Emax) in assay [1] was above 75%; in assay [2] it was below 50%; in assay [3] (Table 5, Assay 2, THRβ) it was above 75%; in assay [4] (Table 5, Assay 1, THRβ) it was 50 to 75%.

Regarding `CC(C)c1cc(Oc2c(Cl)cc(-n3nc(N)c(=O)[nH]c3=O)cc2Br)n[nH]c1=O` [Compound 80, 6-Amino-2-(3-bromo-5-chloro-4-((5-isopropyl-6-oxo-1,6-dihydropyridazin-3-yl)oxy)phenyl)-1,2,4-triazine-3,5(2H,4H)-dione], the EC50 is 50 to 250 nM in assay [1], 50 to 250 nM in assay [2], below 50 nM in assay [3] and below 50 nM in assay [4]. Further, the Emax in assay [1] was 50 to 75%; in assay [2], above 75%; in assay [3] (Table 5, Assay 2, THRβ), above 75%; in assay [4] (Table 5, Assay 1, THRβ) it was 50 to 75%.

Take `Cc1cc(-n2nc(C#N)c(=O)[nH]c2=O)cc(C)c1Cc1cnc2[nH]cc(C(C)C)c2n1` [Compound 66, 2-[4-[(7-isopropyl-5H-pyrrolo[2,3-b]pyrazin-2-yl)methyl]-3,5-dimethyl-phenyl]-3,5-dioxo-1,2,4-triazine-6-carbonitrile]: the EC50 in assay [1] lay in the range of 250 to 1000 nM; in assay [2], 1000 to 10000 nM; in assay [3], 1000 to 10000 nM; in assay [4], 50 to 250 nM. Further, the Emax is below 50% in assay [1]; 50 to 75% in assay [2]; above 75% in assay [3] (Table 5, Assay 2, THRβ); 50 to 75% in assay [4] (Table 5, Assay 1, THRβ).

Consider `CC(c1cc(Oc2c(Cl)cc(-n3nc(N)c(=O)[nH]c3=O)cc2Cl)n[nH]c1=O)C1CC(F)(F)C1` (stereo not shown) [Compound 61, 6-amino-2-[3,5-dichloro-4-([5-[1-(3,3-difluorocyclobutyl)ethyl]-6-oxo-1H-pyridazin-3-yl]oxy)phenyl]-4H-1,2,4-tri-azine-3,5-dione], for which the EC50 in assay [1] is 250 to 1000 nM; in assay [2], 250 to 1000 nM; in assay [3], 50 to 250 nM; in assay [4], below 50 nM. The Emax in assay [1] was 50 to 75%; in assay [2], above 75%; in assay [3] (Table 5, Assay 2, THRβ), above 75%; in assay [4] (Table 5, Assay 1, THRβ) it was below 50%.

For the molecule `COC(=O)c1c[nH]c2ccc(Oc3c(Cl)cc(-n4nc(C#N)c(=O)[nH]c4=O)cc3Cl)cc12` [Compound 4, methyl 5-[2,6-dichloro-4-(6-cyano-3,5-dioxo-4H-1,2,4-triazin-2-yl)phenoxy]-1H-indole-3-carboxylate], the EC50 is above 25000 nM in assay [1], above 10000 nM in assay [2], 1000 to 10000 nM in assay [3] and below 50 nM in assay [4]. In addition, the Emax in assay [1] was below 50%; in assay [2] it was 50 to 75%; in assay [3], above 75%; in assay [4] it was below 50%.

`Nc1nn(-c2cc(Cl)c(Oc3cc(C4CCc5ccccc5C4)c(=O)[nH]n3)c(Cl)c2)c(=O)[nH]c1=O` (stereo not shown) [Compound 98]: the EC50 in assay [1] was above 25000 nM; in assay [2], above 10000 nM; in assay [3], 50 to 250 nM; in assay [4], 50 to 250 nM. Moreover, the Emax was below 50% in assay [1]; below 50% in assay [2]; below 50% in assay [3] (Table 5, Assay 2, THRβ); below 50% in assay [4] (Table 5, Assay 1, THRβ).

Take `Nc1nn(-c2cc(Cl)c(Oc3cc(-c4cccc(F)c4)c(=O)[nH]n3)c(Cl)c2)c(=O)[nH]c1=O` [Compound 69, 6-Amino-2-(3,5-dichloro-4-((5-(3-fluorophenyl)-6-oxo-1,6-dihydropyridazin-3-yl)oxy)phenyl)-1,2,4-triazine-3,5(2H,4H)-dione]: the EC50 in assay [1] lay within 250 to 1000 nM; in assay [2], 50 to 250 nM; in assay [3] it was 50 to 250 nM; in assay [4], 50 to 250 nM. The Emax is below 50% in assay [1]; 50 to 75% in assay [2]; 50 to 75% in assay [3] (Table 5, Assay 2, THRβ); below 50% in assay [4] (Table 5, Assay 1, THRβ).
